Tests used:
Jarid1B = Jarid1B (Homo sapiens (Human), UniProt Q9UGL1); assay: Jarid1B in vitro enzyme inhibition assay (TR-FRET); type: biochemical; conditions: 0.8 nM Jarid1B, 300 nM H3K4me3-biotin peptide, 2 μM alpha-ketoglutaric acid
Excerpt: (§1) This assay determines the ability of a test compound to inhibit Jarid1A, Jarid1B, and JMJD2C demethylase activity. Baculovirus expressed Jarid1A (GenBank Accession #NM_001042603, AA1-1090) was purchased from BPS Bioscience (Cat#50110). Baculovirus expressed Jarid1B (GenBank Accession #NM_006618, AA 2-751) was purchased from BPS Bioscience (Cat #50121) or custom made by MolecularThroughput. Baculovirus expressed JMJD2C (GenBank Accession #BC143571, AA 2-372) was purchased from BPS Bioscience (Cat#50105).
The ability of test compounds to inhibit the activity of Jarid1B was determined in 384-well plate format under the following reaction conditions: 0.8 nM Jarid1B, 300 nM H3K4me3-biotin labeled peptide (Anaspec cat #64357), 2 μM alpha-ketoglutaric acid in assay buffer of 50 mM HEPES, pH7.3, 0.005% Brij35, 0.5 mM TCEP, 0.2 mg/ml BSA, 50 μM sodium L-ascorbate, and 2 μM ammonium iron(II) sulfate. Reaction product was determined quantitatively by TR-FRET after the addition of detection reagent Phycolink Streptavidin-allophycocyanin (Prozyme) and Europium-anti-mono- or di-methylated histone H3 lysine 4 (H3K4me1-2) antibody (PerkinElmer) in the presence of 5 mM EDTA in LANCE detection buffer (PerkinElmer) at a final concentration of 25 nM and 1 nM, respectively.
(§2) The reaction mixture was incubated at room temperature for 30 minutes, and terminated by the addition of 6 μl of 5 mM EDTA in LANCE detection buffer containing 50 nM Phycolink Streptavidin-allophycocyanin and 2 nM Europium-anti-H3K4me1-2 antibody. Plates were read by EnVisionMultilabel Reader in TR-FRET mode (excitation at 320 nm, emission at 615 nm and 665 nm) after 1 hour incubation at room temperature. A ratio was calculated (665/615) for each well and fitted to determine inhibition constant (IC50).

JMJD2C = JMJD2C (Homo sapiens (Human), UniProt Q9H3R0); assay: JMJD2C in vitro enzyme inhibition assay (TR-FRET); type: biochemical; conditions: 0.3 nM JMJD2C, 300 nM H3K9me3-biotin peptide, 2 μM alpha-ketoglutaric acid
Excerpt: as §1
The ability of test compounds to inhibit the activity of JMJD2C was determined in 384-well plate format under the following reaction conditions: 0.3 nM JMJD2C, 300 nM H3K9me3-biotin labeled peptide (Anaspec cat #64360), 2 μM alpha-ketoglutaric acid in assay buffer of 50 mM HEPES, pH7.3, 0.005% Brij35, 0.5 mM TCEP, 0.2 mg/ml BSA, 50 μM sodium L-ascorbate, and 2 μM ammonium iron(II) sulfate. Reaction product was determined quantitatively by TR-FRET after the addition of detection reagent Phycolink Streptavidin-allophycocyanin (Prozyme) and Europium-anti-di-methylated histone H3 lysine 9 (H3K9me2) antibody (PerkinElmer) in the presence of 5 mM EDTA in LANCE detection buffer (PerkinElmer) at a final concentration of 50 nM and 1 nM, respectively.
as §2, with “containing 100” for “containing 50”, “nM Europium-anti-H3K9me2” for “nM Europium-anti-H3K4me1-2”

Sequence of Jarid1B (Q9UGL1 2-751): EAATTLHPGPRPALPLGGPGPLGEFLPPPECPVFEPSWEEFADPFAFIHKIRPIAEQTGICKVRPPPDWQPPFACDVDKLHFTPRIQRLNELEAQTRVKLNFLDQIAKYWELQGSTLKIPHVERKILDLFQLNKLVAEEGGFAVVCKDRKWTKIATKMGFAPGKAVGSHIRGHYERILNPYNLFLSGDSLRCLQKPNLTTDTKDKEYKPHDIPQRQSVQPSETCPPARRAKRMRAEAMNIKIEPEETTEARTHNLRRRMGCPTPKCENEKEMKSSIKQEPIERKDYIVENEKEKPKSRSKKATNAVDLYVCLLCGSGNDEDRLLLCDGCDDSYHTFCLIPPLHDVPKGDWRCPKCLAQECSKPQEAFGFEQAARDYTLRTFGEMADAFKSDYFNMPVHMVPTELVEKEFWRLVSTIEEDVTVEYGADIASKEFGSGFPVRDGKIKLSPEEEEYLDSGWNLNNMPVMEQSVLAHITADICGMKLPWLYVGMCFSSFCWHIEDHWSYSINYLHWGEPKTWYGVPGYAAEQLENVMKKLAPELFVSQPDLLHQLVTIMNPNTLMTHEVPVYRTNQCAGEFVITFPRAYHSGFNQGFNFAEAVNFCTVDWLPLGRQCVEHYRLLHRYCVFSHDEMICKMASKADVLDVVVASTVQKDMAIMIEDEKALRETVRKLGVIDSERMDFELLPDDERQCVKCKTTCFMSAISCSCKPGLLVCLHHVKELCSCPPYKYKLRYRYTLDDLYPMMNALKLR
Sequence of JMJD2C (Q9H3R0 2-372): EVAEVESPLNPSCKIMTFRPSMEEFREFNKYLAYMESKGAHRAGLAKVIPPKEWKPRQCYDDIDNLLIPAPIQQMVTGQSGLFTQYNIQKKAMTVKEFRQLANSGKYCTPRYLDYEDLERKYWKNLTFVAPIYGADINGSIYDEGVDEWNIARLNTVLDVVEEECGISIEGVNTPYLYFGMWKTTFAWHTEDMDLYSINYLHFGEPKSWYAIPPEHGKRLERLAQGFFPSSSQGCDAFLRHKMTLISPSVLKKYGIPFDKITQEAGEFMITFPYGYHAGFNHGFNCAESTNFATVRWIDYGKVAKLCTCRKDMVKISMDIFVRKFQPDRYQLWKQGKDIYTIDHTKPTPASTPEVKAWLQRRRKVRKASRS

| Compound | IC50 (Jarid1B) [nM] | IC50 (JMJD2C) [nM] |
| --- | --- | --- |
| O=C(O)c1ccncc1NCc1ccccc1O [Example 17, 3-[(2-hydroxybenzyl)amino]pyridine-4-carboxylic acid] | ≤ 100 | ≤ 100 |
| O=C(O)c1ccncc1NCc1ccccc1F [Example 2, 3-[(2-fluorobenzyl)amino)pyridine-4-carboxylic acid] | ≤ 100 | ≤ 100 |
| CN(C)Cc1ccccc1CNc1cnccc1C(=O)O [Example 13, 3-({2-[(dimethylamino)methyl]benzyl}amino)pyridine-4-carboxylic acid] | ≤ 100 | ≤ 100 |
| COc1ccc(CNc2cnccc2C(=O)O)c(OC)c1 [Example 16, 3-[(2,4-dimethoxyoxybenzyl)amino]pyridine-4-carboxylic acid] | ≤ 100 | 100 to 1000 |
| O=C(O)c1ccncc1NCc1ccc(Oc2ccccc2)cc1 [Example 12, 3-[(4-phenoxybenzyl)amino]pyridine-4-carboxylic acid] | ≤ 100 | 100 to 1000 |
| O=C(O)c1ccncc1NCc1ccc(Cl)c(Cl)c1 [Example 14] | ≤ 100 | ≤ 100 |
| CC(C)Oc1ccc2c(c1)CCCC2CNc1cnccc1C(=O)O (stereo not shown) [Example 64] |  | 100 to 1000 |
| 3-{[(6-chloro-1,2,3,4-tetrahydronaphthalen-1- yl)methyl]amino}pyridine-4-carboxylic acid [Example 68] |  | 100 to 1000 |
| CC1(C)CCC(CNc2cnccc2C(=O)O)c2ccccc21 (stereo not shown) [Example 59, 3-{[(4,4-dimethyl-1,2,3,4-tetrahydronaphthalen-1-yl)methyl]amino}pyridine-4-carboxylic acid] |  | 100 to 1000 |
| CN1CCC(CNc2cnccc2C(=O)O)c2ccccc21 (stereo not shown) [Example 82, 3{[(1-methyl-1,2,3,4-tetrahydroquinolin-4-yl)methyl]amino}pyridine-4-carboxylic acid] |  | 100 to 1000 |
| O=C(O)c1ccncc1NCC1CCCc2cc(OCCC(F)(F)F)ccc21 (stereo not shown) [Example 79] |  | 100 to 1000 |
| O=C(O)c1ccncc1NCC1(O)CCCc2c(F)cccc21 (stereo not shown) [Example 55, 3-{[(5-fluoro-1-hydroxy-1,2,3,4-tetrahydronaphthalen-1-yl)methyl]amino}pyridine-4-carboxylic acid] |  | 100 to 1000 |

Next, values leading:

| IC50 (Jarid1B) [nM] | IC50 (JMJD2C) [nM] | Compound |
| --- | --- | --- |
|  | ≤ 100 | O=C(O)c1ccncc1NCC1CCOc2c(F)cccc21 (stereo not shown) [Example 71, 3-{[(8-fluoro-3,4-dihydro-2H-chromen-4-yl)methyl]amino}pyridine-4-carboxylic acid] |
|  | 100 to 1000 | O=C(O)c1ccncc1NC[C@H]1CCOc2cc(-c3ccccc3F)ccc21 [Example 95, 3-({[(4S)-7-(2-fluorophenyl)-3,4-dihydro-2H-chromen-4-yl]methyl}amino)pyridine-4-carboxylic acid] |
|  | 100 to 1000 | O=C(O)c1ccncc1NC[C@H]1CCOc2cc(-c3cccc(F)c3)ccc21 [Example 85, 3-({[(4S)-7-(3-fluorophenyl)-3,4-dihydro-2H-chromen-4-yl]methyl}amino)pyridine-4-carboxylic acid] |
|  | 100 to 1000 | O=C(O)c1ccncc1NC[C@@H]1CCCc2c(F)cccc21 [Example 57, 3-({[(1R)-5-fluoro-1,2,3,4-tetrahydronaphthalen-1-yl]methyl}amino)pyridine-4-carboxylic acid] |
|  | 100 to 1000 | O=C(O)c1ccncc1NC[C@@H]1CCOc2cc(-c3ccccc3)ccc21 [Example 84, 3-({[(4R)-7-phenyl-3,4-dihydro-2H-chromen-4-yl]methyl}amino)pyridine-4-carboxylic acid] |
|  | 100 to 1000 | O=C(O)c1ccncc1NCC1CCOc2cc(C3CC3)ccc21 (stereo not shown) [Example 75, 3-{[(7-cyclopropyl-3,4-dihydro-2H-chromen-4-yl)methyl]amino}pyridine-4-carboxylic acid] |
|  | 1000 to 10000 | O=C(O)c1ccncc1NC[C@@H]1CCOc2cc(-c3ccc(F)cc3)ccc21 [Example 94, 3-({[(4R)-7-(4-fluorophenyl)-3,4-dihydro-2H-chromen-4-yl]methyl}amino)pyridine-4-carboxylic acid] |
